Reference: patent publication US10363250B2, “Folate receptor binding conjugates of antifolates” (Purdue Research Foundation, priority 2008, dated 2019)
pIC50: −log10 of the molar value. Several values for one entry are separate records, joined by “and”; a condition that tells them apart may be missing. Equal entries are not always repeated. Where two headings read alike, the source gives them in different places.

Columns and labels:
[1] = target: T1, human FRs (KB cells) (Homo sapiens, UniProt P15328); experiment: Cell-Based Relative Affinity Assay (competition with 3H-FA on adherent KB cells); format: binding; details: for fold weaker affinity / fold lower RA: versus FA (or the Glu-bearing parent); for change of RA with incubation temperature: on ice versus 37° C.
T1 construct: endogenous in cells; host or cells: KB cells
T1 sequence (P15328 25-234): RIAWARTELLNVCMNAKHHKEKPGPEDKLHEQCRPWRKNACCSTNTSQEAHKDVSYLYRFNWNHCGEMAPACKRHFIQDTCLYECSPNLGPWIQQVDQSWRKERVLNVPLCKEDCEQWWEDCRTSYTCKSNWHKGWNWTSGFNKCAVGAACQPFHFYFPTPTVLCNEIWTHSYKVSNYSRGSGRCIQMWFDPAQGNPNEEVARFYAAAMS
Experimental: Cell culture. Cells were grown continuously as a monolayer using folate-free RPMI medium (FFRPMI) containing 10% heat-inactivated fetal calf serum (HIFCS) at 37° C. in a 5% CO2/95% air-humidified atmosphere with no antibiotics. The HIFCS contained its normal complement of endogenous folates which enabled the cells to sustain growth in this more physiologically-relevant medium (Leamon et al. Proc Natl Acad Sci, USA 1991; 88:5572-6). All cell experiments were performed using FFRPMI containing 10% HIFCS (FFRPMI/HIFCS) as the growth medium unless otherwise specified.
Cell-Based Relative Affinity Assay. The relative affinity of each test article was determined based on a method initially described by Westerhoff et al. Mol Pharm 1995; 48:459-71) with modifications. Briefly, FR-positive KB cells were seeded in 24-well Falcon plates and allowed to form adherent monolayers (>75% confluent) overnight in FFRPMI/HIFCS. […] Cells were incubated for 1 h on ice or in an incubator at 37° C. (as specified in the figure legends) and then rinsed 3 times with 0.5 mL of PBS. Five hundred microliters of 1% sodium dodecyisulfate in PBS were added to each well; after 5 min, cell lysates were collected, transferred to individual vials containing 5 mL of scintillation cocktail, and then counted for radioactivity. […] Relative affinities were defined as described above.
(§1) Relative Affinity Assay Format. The in vitro RA assay described within measures a ligand's ability to compete with FA for binding to FRs. To date, cultured cells have most commonly been used as the FR source. However, herein described is the evaluation of the use of a cell-free, immobilized FR plate system for this assay. This latter method utilized a microtiter plate to which commercially-available bovine milk soluble FBP had been chemically anchored. Similar to the cell-based method, ^3H-FA can compete directly with increasing concentrations of test article for binding to the attached FRs; however, unlike the cell-based method, bound radiolabel can be conveniently “stripped” from the plate by rinsing with a mildly acidic saline solution. […] Likewise, values lower than unity reflect weaker affinity, and values higher than unity reflect stronger affinity.

[2] = target: Folate Receptor (Homo sapiens, UniProt P15328); details: Table 1 footnote (a): Westerhoff et al. 1995; cited from earlier work
Sequence of Folate Receptor (P15328 25-234): as above

[3] = tested on: human KB tumor cells xenografts; experiment: Activity against subcutaneous KB tumors; format: in vivo, mice; details: 2 μmol/kg TIW/2 weeks
Experimental: Effect On Transplanted KB Tumors. Mice are injected, subcutaneously with human KB tumor cells xenografts.

[4] = tested on: KB cells; experiment: Activity against KB cells (72 h continuous assay); format: cell-based; details: Homo sapiens
[5] = target: bovine milk soluble folate binding protein (sFBP) (Bos taurus, UniProt P02702); details: plate-anchored bovine milk sFBP, cold incubation, absence of serum
Sequence of bovine milk soluble folate binding protein (sFBP) (P02702 20-234): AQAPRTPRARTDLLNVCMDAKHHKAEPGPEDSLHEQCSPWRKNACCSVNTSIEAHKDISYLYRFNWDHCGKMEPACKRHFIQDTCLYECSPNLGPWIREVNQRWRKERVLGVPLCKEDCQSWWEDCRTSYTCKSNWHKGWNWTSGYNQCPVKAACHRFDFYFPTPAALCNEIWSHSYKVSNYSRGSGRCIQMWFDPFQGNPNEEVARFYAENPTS
From the text: as §1

[6] = Remaining in solution during the RA assay period; format: physicochemical; details: even at 30 μM, throughout the assay period
From the text: It is further appreciated that among the folate analogs, it was interesting to observe the importance of having a charged moiety in close proximity to the Pte group. For example, the RA value increased 90 to>300-fold when a Glu residue was attached to Pte, and N^10-propargyl 5,8-dideazapteroic acid, respectively. […] But, two exceptions were found. […] Therefore, without being hound by theory, it is believed that the lower RA value observed for EC216 may result from steric interference caused by the closer proximity of the drug (DAVLBH) to the Pte unit.

[7] = Table 1, adherent KB cells, 10% serum, 37° C., FA = 1
[8] = KB cells, 10% serum (10% serum/FDRPMI)
[9] = Table 2, adherent KB cells, 10% serum, 37° C., FA = 1

Nc1nc2c(c(=O)[nH]1)N(C=O)C(CNc1ccc(C(=O)N[C@@H](CCC(=O)O)C(=O)O)cc1)CN2 (stereo partly drawn) [5-formyl-tetrahydrofolate, 5-formyltetrahydrofolate]
fold weaker affinity / fold lower RA ([1]; KB cells, 10% serum, 37° C.): 125
Fold Weaker Affinity from FA ([1]; Table 1, 37° C., 10% serum): 125
Relative Binding Affinity (0° C.) ([1]; Table 1, KB cells, FA = 1): 0.15
Relative Binding Affinity (37° C.) [1, 7]: 0.008
Relative Binding Affinity (0° C.), value in parentheses [2]: 0.1

CN1c2c(nc(N)[nH]c2=O)NCC1CNc1ccc(C(=O)N[C@@H](CCC(=O)O)C(=O)O)cc1 (stereo partly drawn) [5-methyl-tetrahydrofolate, 5-methyltetrahydrofolate]
fold weaker affinity / fold lower RA ([1]; KB cells, 10% serum, 37° C.): 14
Fold Weaker Affinity from FA ([1]; Table 1, 37° C., 10% serum): 14
Relative Binding Affinity (37° C.) [1, 7]: 0.070
Relative Binding Affinity (0° C.), value in parentheses [2]: (0.35)^(a)

C#CCN(Cc1ccc2nc(N)[nH]c(=O)c2c1)c1ccc(C(=O)N[C@@H](CCC(=O)O)C(=O)O)cc1 [CB3717, N10-propargyl-5,8-dideazafolic acid]
RA (relative affinity) [1, 8]: 0.148
RA / competitive binding in words ([1]; KB cells, 10% serum, 37° C.): equal to that of FA
Fold Weaker Affinity from FA ([1]; Table 1, 37° C., 10% serum): 1.0
Relative Binding Affinity (37° C.) [1, 7]: 1.000
complete responses [3]: 0/5
pIC50 ([4]; FIG. 9 Panel A): 8.30
pIC50 ([4]; FIG. 9 Panel B): 7.72

C#CCN(Cc1ccc2nc(N)[nH]c(=O)c2c1)c1ccc(C(=O)O)cc1 [Des-glutamyl CB3717, N^10-propargyl 5,8-dideazapteroic acid]
fold weaker affinity / fold lower RA ([1]; KB cells, 10% serum, 37° C.): > 300
Fold Weaker Affinity from FA ([1]; Table 1, 37° C., 10% serum): 500
Relative Binding Affinity (37° C.) [1, 7]: 0.002

Nc1nc2ncc(CNc3ccc(C(=O)N[C@@H](CCC(=O)NCCNC(=S)Nc4ccc(-c5c6ccc(=O)cc-6oc6cc(O)ccc56)c(C(=O)O)c4)C(=O)O)cc3)nc2c(=O)[nH]1 [EC17, Pte-γGlu-eda-FITC]
Fold Weaker Affinity form FA ([1]; Table 2, 37° C., 10% serum): 1.2
Relative Binding Affinity (0° C.) ([1]; Table 2, KB cells, FA = 1): 0.29
Relative Binding Affinity (37° C.) [1, 9]: 0.45
change of RA with incubation temperature ([1]; no serum): increased with temperature

Nc1nc2ncc(CNc3ccc(C(=O)N[C@@H](CCC(=O)NC[C@H](N)C(=O)N[C@@H](CC(=O)O)C(=O)N[C@@H](CS)C(=O)O)C(=O)O)cc3)nc2c(=O)[nH]1 [EC20, Pte-γGlūβDpr-Asp-Cys]
Fold Weaker Affinity form FA ([1]; Table 2, 37° C., 10% serum): 1.1
Relative Binding Affinity (37° C.) [1, 9]: 0.92

CO[C@@]12[C@H](COC(N)=O)C3=C(C(=O)C(C)=C(NCCSSC[C@H](NC(=O)CC[C@@H](NC(=O)c4ccc(NCc5cnc6nc(N)[nH]c(=O)c6n5)cc4)C(=O)O)C(=O)O)C3=O)N1C[C@@H]1N[C@@H]12 [EC72, Pte-γGlu-Cys-L-MMC]
Fold Weaker Affinity form FA ([1]; Table 2, 37° C., 10% serum): 1.5
Relative Binding Affinity (0° C.) ([1]; Table 2, KB cells, FA = 1): 0.53
Relative Binding Affinity (37° C.) [1, 9]: 0.59
change of RA with incubation temperature ([1]; no serum): increased with temperature

CC[C@]1(O)CC2CN(CCc3c([nH]c4ccccc34)[C@@](C(=O)OC)(c3cc4c(cc3OC)N(C)[C@H]3[C@@](O)(C(=O)N/N=C(\C)c5ccc(N6C(=O)CC(SC[C@H](NC(=O)[C@H](CC(=O)O)NC(=O)[C@H](CC(=O)O)NC(=O)[C@H](CCCNC(=N)N)NC(=O)[C@H](CC(=O)O)NC(=O)CC[C@H](NC(=O)c7ccc(NCc8cnc9nc(N)[nH]c(=O)c9n8)cc7)C(=O)O)C(=O)O)C6=O)cc5)[C@H](O)[C@]5(CC)C=CCN6CC[C@]43[C@@H]65)C2)C1 (stereo partly drawn) [EC140, EC119-Hyd-DAVLBH]
RA (relative affinity) [1, 8]: 0.50
RA (relative affinity) ([1]; KB cells, 37° C., no serum): 0.12
fold change of RA with serum versus absence of serum ([1]; KB cells, serum versus no serum): 4 and 4.1
Fold Weaker Affinity form FA ([1]; Table 2, 37° C., 10% serum): 2.0
Relative Binding Affinity (37° C.) [1, 9]: 0.50

CC[C@]1(O)CC2CN(CCc3c([nH]c4ccccc34)[C@@](C(=O)OC)(c3cc4c(cc3OC)N(C)[C@H]3[C@@](O)(C(=O)NNC(=O)OCCSSC[C@H](NC(=O)[C@H](CC(=O)O)NC(=O)[C@H](CC(=O)O)NC(=O)[C@H](CCCNC(=N)N)NC(=O)[C@H](CC(=O)O)NC(=O)CC[C@H](NC(=O)c5ccc(NCc6cnc7nc(N)[nH]c(=O)c7n6)cc5)C(=O)O)C(=O)O)[C@H](O)[C@]5(CC)C=CCN6CC[C@]43[C@@H]65)C2)C1 (stereo partly drawn) [EC145, EC119-L-DAVLBH]
Fold Weaker Affinity form FA [1]: 2.1
Relative Binding Affinity (37° C.) [1]: 0.47
fold change of RA with serum versus absence of serum [1]: 2.4
complete responses [3]: 2/5
RA (relative affinity) [5]: 0.12

CC[C@]1(O)CC2CN(CCc3c([nH]c4ccccc34)[C@@](C(=O)OC)(c3cc4c(cc3OC)N(C)[C@H]3[C@@](O)(C(=O)NNC(=O)OCCSSC[C@H](NC(=O)c5ccc(NCc6cnc7nc(N)[nH]c(=O)c7n6)cc5)C(=O)O)[C@H](O)[C@]5(CC)C=CCN6CC[C@]43[C@@H]65)C2)C1 (stereo partly drawn) [EC216, Pte-Cys-L-DAVLBH]
fold decrease in RA versus EC145 ([1]; KB cells, 10% serum, 37° C., shortened spacer): 10
Fold Weaker Affinity form FA ([1]; Table 2, 37° C., 10% serum): 22
Relative Binding Affinity (37° C.) [1, 9]: 0.046
remaining in solution [6]: remain in solution

C#CCN(Cc1ccc2nc(N)[nH]c(=O)c2c1)c1ccc(C(=O)O)cc1 [EC283]
RA (relative affinity) [1, 8]: 0.002

Nc1nc2ncc(CNc3ccc(C(=O)N[C@@H](CCC(=O)O)C(=O)O)cc3)nc2c(=O)[nH]1 [Folic Acid]
variation of calculated RA values among serum conditions ([1]; 0 to 100% sera): 13%

CN(Cc1cnc2nc(N)[nH]c(=N)c2n1)c1ccc(C(=O)N[C@@H](CCC(=O)O)C(=O)O)cc1 [Methotrexate]
fold weaker affinity / fold lower RA ([1]; KB cells, 10% serum, 37° C.): 50
Fold Weaker Affinity from FA ([1]; Table 1, 37° C., 10% serum): 50
Relative Binding Affinity (0° C.) ([1]; Table 1, KB cells, FA = 1): 0.000
Relative Binding Affinity (37° C.) [1, 7]: 0.018
Relative Binding Affinity (0° C.), value in parentheses [2]: 0.008

Nc1nc2[nH]cc(CCc3ccc(C(=O)N[C@@H](CCC(=O)O)C(=O)O)cc3)c2c(=O)[nH]1 [Pemetrexed, N-(4-(2-(2-amino-4,7-dihydro-4-oxo-3H-pyrrolo[2,3-D]pyrimidin-5-yl)ethyl)benzoyl]-L-glutamic acid]
Fold Weaker Affinity from FA ([1]; Table 1, 37° C., 10% serum): 500
Relative Binding Affinity (0° C.) ([1]; Table 1, KB cells, FA = 1): 0.26
Relative Binding Affinity (37° C.) [1, 7]: 0.002
Relative Binding Affinity (0° C.), value in parentheses [2]: 1.5

Nc1nc2ncc(C(=O)O)nc2c(=O)[nH]1 [Pterin-6-carboxylate]
RA / competitive binding in words ([1]; KB cells, 10% serum, 37° C.): failed to block
Relative Binding Affinity (37° C.) [1, 7]: 0.000

Nc1nc2ncc(CNc3ccc(C(=O)O)cc3)nc2c(=O)[nH]1 [Pteroic Acid]
RA (relative affinity) ([1]; KB cells on ice / cold incubation, absence of serum): 0.42
fold weaker affinity than FA ([1]; KB cells on ice, no serum): 2.4
fold weaker affinity / fold lower RA ([1]; KB cells, 10% serum, 37° C., listed as Pte): 91 and 90
RA (relative affinity) ([1]; KB cells, 37° C., no serum): 0.01
fold weaker affinity than FA ([1]; KB cells, 37° C., no serum): 100
Fold Weaker Affinity from FA ([1]; Table 1, 37° C., 10% serum): 91
Relative Binding Affinity (0° C.) ([1]; Table 1, KB cells, FA = 1): 0.42
Relative Binding Affinity (37° C.) [1, 7]: 0.011

Cc1cc2nc3c(=O)[nH]c(=O)nc-3n(C[C@H](O)[C@H](O)[C@H](O)CO)c2cc1C [riboflavin]
competition with binding of 3H-FA ([1]; 300-fold molar excess, KB cells): not able to compete
RA / competitive binding in words ([1]; KB cells, 10% serum, 37° C.): very low
